Source: ChEMBL document CHEMBL1142389, “New insights into the first oxidative phenol coupling reaction during vancomycin biosynthesis” (Bioorg Med Chem Lett, 2008)

Target: T1, Cytochrome P450 165B3 (Amycolatopsis orientalis, UniProt Q8RN04)
T1 sequence (Q8RN04 whole entry): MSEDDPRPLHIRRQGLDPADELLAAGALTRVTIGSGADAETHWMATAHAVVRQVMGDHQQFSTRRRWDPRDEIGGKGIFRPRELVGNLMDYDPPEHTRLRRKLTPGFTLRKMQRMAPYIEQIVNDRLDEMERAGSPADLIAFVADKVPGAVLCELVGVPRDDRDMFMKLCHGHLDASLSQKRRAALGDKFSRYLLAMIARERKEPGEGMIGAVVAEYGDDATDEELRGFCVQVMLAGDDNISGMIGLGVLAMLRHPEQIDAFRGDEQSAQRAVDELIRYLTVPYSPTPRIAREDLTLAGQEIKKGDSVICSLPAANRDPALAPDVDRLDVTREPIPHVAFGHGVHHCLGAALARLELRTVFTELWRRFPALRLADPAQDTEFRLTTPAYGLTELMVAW
Test: Binding affinity to Amycolatopsis orientalis OxyB

Row | Kd [µM] | SMILES
1 | 17 | CN[C@H](CC(C)C)C(=O)N[C@H](Cc1ccc(O)cc1)C(=O)N[C@@H](CC(N)=O)C(=O)N[C@@H](C(=O)N[C@@H](C(=O)N[C@@H](Cc1ccc(O)cc1)C(=O)O)c1ccc(O)cc1)c1ccc(O)cc1
2 | 35 | CN[C@H](CC(C)C)C(=O)N[C@H](Cc1ccc(O)cc1)C(=O)N[C@@H](CC(N)=O)C(=O)N[C@@H](C(=O)N[C@@H](C(=O)N[C@H](Cc1ccc(O)cc1)C(=O)O)c1ccc(O)cc1)c1ccc(O)cc1
